As usually defined, the AC50 is the concentration at which the activity in the assay is half-maximal. The IC50 is the concentration at which inhibition is half-maximal.

Like-named read-outs stand apart in the source and are kept apart here. Bounds are passed on as bounds.

The subject of data set [1] is mCherry-ZIKV in human neuronal progenitor cells. Put plainly: microbe, parasite or virus in culture. In kind it is cell-based, Zika virus. The settings on record: for IC50: read-out: NPC (ZIKV Antiviral Assays), IC50.
The test system of data set [2] is DENV (Dengue virus type 2, strain New Guinea C).
The subject of data set [3] is human neuronal progenitor cells (NPC).
For data set [4], the system named is caspase-3 activity induced by ZIKV in Vero cells. Put plainly: cells. In kind it is cell-based. The settings on record: read-out: Caspase 3 (ZIKV Antiviral Assays), IC50.
Data set [5] deals with ZIKV-RLuc (Cambodian strain FSS13025). Kind of data set: microbe, parasite or virus in culture. In kind it is cell-based, Zika virus. The following applies: read-out: Rluc-ZIKV (ZIKV Antiviral Assays), IC50.
Data set [6] concerns wild-type ZIKV (Ugandan MR766 strain) in Vero cells. Kind of data set: ZIKV cytopathic effect (CPE) inhibition qHTS assay, CellTiter-Glo readout. In kind it is cell-based, Zika virus. The following applies: for IC50: read-out: ZIKV-infection (CPE, ZIKV Antiviral Assays), IC50. A general note: Damage to the host cells serves as the signal in cytopathic effect assays.
Data set [7] has as its system YFV (YFV 17D).
Data set [8] relates to HepG2 cells.
In data set [9] the test system is ZIKV-mCherry (Cambodian strain FSS13025). Put plainly: microbe, parasite or virus in culture. In kind it is cell-based, Zika virus.
Data set [10] concerns ZIKV.
Data set [11] concerns Vero cells.
Data set [12] concerns WNV (Kern515/WN02).
Data set [13] deals with ZIKV-mCherry in 3D-oBRB tissue. In kind it is cell-based, Zika virus.
Data set [14] is described as follows: in vitro. The following applies: African green monkey.
Data set [15] has as its system Solute carrier organic anion transporter family member 1B1. The settings on record: cited from earlier work.
Data set [16] addresses Tyrosine-protein phosphatase non-receptor type 1. The following applies: cited from earlier work.
Data set [17] can be described thus: in vitro. The settings on record: human.
Data set [18] deals with Transcription factor AP-1. The following applies: cited from earlier work.
Data set [19] concerns ZIKV-mCherry in iPSC-derived RPE monoculture. In kind it is cell-based, Zika virus.
[20] abbreviates: Zika virus, Neuronal progenitor cell.
Setting [21] is: Zika virus, Vero, read-out: Log AC50 (M) (converted).

For the compound “5-methylcytidine [NCGC00484060-01, reference compound]”, in [1], the “CC-v2 (curve class)” value is given as -2.2, the Efficacy was -64.821, the “Log AC50 (M)” value is -4.4 M and the “Max Resp” value is given as -51.196. In addition, the IC50 in data set [1] was determined as 39.8 µM. The AC50 in [1] (read-out: AC50) worked out at 3.98e-05 M. In data set [2], the “DENV active Yes/No” value is “No”. This compound registered a CC50 in data set [3] of 19.2 µM. Further, the IC50 in data set [4] (ZIKV-infected Vero cells, 48 hr, unit inferred) is over 48 µM. Further, the IC50 in data set [5] amounted to 18.5 µM. In [6], the “CC-v2 (curve class classification of the dose response curve)” value is given as -1.2, the Efficacy is listed as -42.621, the “Log AC50 (M)” value is -4.8362 M and the “Max Resp” value is given as -39.681. For the same compound, in [6], the IC50 turned out to be 14.6 µM. Moreover, the AC50 in [6] (read-out: AC50) came to 1.46e-05 M. Moreover, in [7], the “SI value YFV (CC50/EC50)” value came to 3, the “Selectivity Index YFV (CC50/EC50)” value is recorded as 3 and the “YFV active Yes/No” value was “Yes”. Also, the CC50 in data set [8] is over 30 µM. In data set [9], the “CC-v2 (curve class of the dose response curve)” value is listed as -1.2; the “Efficacy (difference between neutral response and maximum compound response)” value is reported as -45.337; the “Log AC50 (M)” value was -5.0741 M; the “Max Resp (difference between neutral response and response at highest compound concentration)” value was -100.16. Besides, the AC50 in data set [9] (read-out: AC50) was 8.43e-06 M. Also, in [10], the “SI value ZIKV (CC50/EC50)” value was determined as 28, the “Selectivity Index ZIKV (CC50/EC50)” value amounted to 28 and the “ZIKV active Yes/No” value is given as “Yes”. The compound further displayed a CC50 in [11] of over 50 µM. Further, in data set [12], the “SI value WHV (CC50/EC50)” value came to 1.8, the “Selectivity Index WHV (CC50/EC50)” value stood at 2 and the “WHV active Yes/No” value is reported as “No”.

On to `C=C(C)[C@@]12O[C@@H]1[C@@]1(C)C(=CC2=O)CC[C@@H](OC(C)=O)[C@@H]1C` [NCGC00380955-01, 3-Acetyl-13-deoxyphomenone], for which, in data set [1], the “Antiviral activity in human NPC” value is “effectively inhibited ZIKV in NPC cells”, the “CC-v2 (curve class)” value is recorded as -1.2, the Efficacy is -81.826 and the “Max Resp” value is -89.257. Moreover, in [1] (setting [20]), half-maximal activity (AC50) was put at 1.26e-05 M and the IC50 was 12.6 µM. For the same compound, in [1] (Zika virus, Neuronal progenitor cell, read-out: Log AC50 (M) (converted)), the half-maximal activity concentration (AC50) is 1.26e-05 M. In data set [2], the “Activity against DENV” value was “pan-activity against all four screened flaviviruses”, the “DENV active Yes/No” value is “Yes”, the “SI value DENV (CC50/EC50)” value turned out to be 14 and the “Selectivity Index DENV (CC50/EC50)” value came to 14. Besides, the IC50 in data set [4] (Zika virus, Vero, 48 h) came to 1.66 µM. The IC50 in [5] (Zika virus, Vero, 48 h) turned out to be 2.33 µM. Also, in data set [13], the “Retention of barrier function (TEER)” value worked out at 30%. In addition, in data set [6], the “CC-v2 (curve class classification of the dose response curve)” value is listed as -1.2 and the Efficacy was -61.612. Also, in data set [6] (Zika virus, Vero), the AC50 is 4.61e-06 M. For the same compound, the IC50 in data set [6] (Zika virus, Vero, 48 h) was found to be 4.61 µM. Also, the AC50 in [6] (setting [21]) was 4.61e-06 M. Also, in data set [7], the “Activity against YFV” value is listed as “pan-activity against all four screened flaviviruses”, the “SI value YFV (CC50/EC50)” value is given as 5, the “Selectivity Index YFV (CC50/EC50)” value is reported as 5 and the “YFV active Yes/No” value is listed as “Yes”. Besides, in data set [9], the “CC-v2 (curve class of the dose response curve)” value was -1.2; the “Efficacy (difference between neutral response and maximum compound response)” value is on record as -59.673; the “Max Resp (difference between neutral response and response at highest compound concentration)” value was -100.008. In data set [9] (Zika virus, Vero), this compound displayed an AC50 of 1.5e-06 M. The AC50 in data set [9] (setting [21]) was 1.5e-06 M. Further, in data set [10], the “Activity against ZIKV” value is “pan-activity against all four screened flaviviruses”, the “SI value ZIKV (CC50/EC50)” value was determined as 22, the “Selectivity Index ZIKV (CC50/EC50)” value came out at 22 and the “ZIKV active Yes/No” value was “Yes”. In [14], the CC50 is over 50 µM. Also, in data set [12], the “Activity against WNV” value is recorded as “pan-activity against all four screened flaviviruses”, the “SI value WHV (CC50/EC50)” value is recorded as 9, the “Selectivity Index WHV (CC50/EC50)” value worked out at 9 and the “WHV active Yes/No” value is “Yes”.

For `CC1OC(OC2C(OC(=O)[C@]34CCC(C)(C)C[C@H]3C3=CCC5[C@@]6(C)CC[C@H](OC7OC(C(=O)O)C(O)C(O)C7O)C(C)(C)C6CC[C@@]5(C)[C@]3(C)CC4O)OC(CO)C2O)C(O)C(O)C1OC1OCC(O)C(O)C1O` (stereo partly shown) [NCGC00381102-01], the IC50 in data set [4] (Zika virus, Vero, 48 h) is over 48 µM; in data set [5] (Zika virus, Vero, 48 h) it was 6.19 µM; in data set [6] (Zika virus, Vero, 48 h) it was 15.5 µM. For the same compound, in data set [15], the “-Log(IC50) M, Solute carrier organic anion transporter family member 1B1” value is on record as “Solute carrier organic anion transporter family member 1B1 -Log(IC50) M~5.40~-Log(IC50) M~0.8333~Target”. Besides, the “CC-v2 (curve class classification of the dose response curve)” value in data set [6] was -3. In addition, the Efficacy in [6] is -33.279. The AC50 in data set [6] (Zika virus, Vero) is 1.55e-05 M; in data set [6] (setting [21]), 1.55e-05 M. Besides, the “CC-v2 (curve class of the dose response curve)” value in [9] is -1.4. Besides, the “Efficacy (difference between neutral response and maximum compound response)” value in data set [9] is listed as -69.614. Further, the “Max Resp (difference between neutral response and response at highest compound concentration)” value in [9] is recorded as -99.592. This compound had a CC50 at 48 h in data set [14] (Vero cells) of over 50 µM.

Take `CC1=C[C@H]2O[C@@H]3[C@H](O)[C@@H](O)[C@](C)([C@@]2(CO)C[C@@H]1O)[C@]31CO1` [NCGC00381381-01, T-2 toxin tetraol]: the CC50 is over 30 µM in data set [8] (read-out: Cell toxicity counterscreen HepG2, CC50) and over 50 µM in data set [11] (read-out: Cell toxicity counterscreen Vero, CC50).

For `CC1(C)CC[C@]2(C(=O)O)CC[C@]3(C)C(=CC[C@@H]4[C@@]5(C)CC[C@H](O[C@@H]6O[C@H](C(=O)O)[C@@H](O)[C@H](O)[C@H]6O)C(C)(C)[C@@H]5CC[C@]43C)[C@@H]2C1` [NCGC00384528-01, Calenduloside E], in data set [16], the “-Log(IC50) M, Tyrosine-protein phosphatase non-receptor type 1” value is given as “Tyrosine-protein phosphatase non-receptor type 1 -Log(IC50) M~5.46~-Log(IC50) M~0.7284~Target”. The same compound had a CC50 in [17] of over 30 µM. In addition, the IC50 in data set [4] (Zika virus, Vero, 48 h) came out at 0.001 µM; in data set [5] (Zika virus, Vero, 48 h), 11 µM; in data set [6] (Zika virus, Vero, 48 h), 13.7 µM. In [6], this compound registered an Efficacy of -27.436. Further, the AC50 in data set [6] (Zika virus, Vero) is 1.37e-05 M; in data set [6] (setting [21]), 1.37e-05 M; in data set [9] (Zika virus, Vero), 4.99e-06 M; in data set [9] (setting [21]), 4.99e-06 M. Besides, the “CC-v2 (curve class of the dose response curve)” value in data set [9] is listed as -1.2. Besides, the “Efficacy (difference between neutral response and maximum compound response)” value in data set [9] is recorded as -57.341. Also, the “Max Resp (difference between neutral response and response at highest compound concentration)” value in data set [9] was -100.305. Besides, the CC50 at 48 h in data set [14] (Vero cells) was over 50 µM.

Regarding `CC1(C)CC[C@]2(C(=O)O)CC[C@]3(C)C(=CCC4[C@@]5(C)CC[C@H](O[C@H]6O[C@H](C(=O)O)[C@@H](O)[C@H](O[C@@H]7O[C@H](CO)[C@H](O)[C@H](O)[C@H]7O)[C@H]6O)C(C)(C)C5CC[C@]43C)[C@@H]2C1` (stereo partly shown) [NCGC00385211-01, Calenduloside G], the IC50 turned out to be 1.39 µM in data set [4] (Zika virus, Vero, 48 h); 2.2 µM in [5] (Zika virus, Vero, 48 h); 12.3 µM in [6] (Zika virus, Vero, 48 h). The compound further showed an Efficacy in data set [6] of -58.411. Moreover, the AC50 was 1.23e-05 M in [6] (Zika virus, Vero); 1.23e-05 M in data set [6] (setting [21]); 3.19e-06 M in data set [9] (Zika virus, Vero); 3.19e-06 M in [9] (setting [21]). The “CC-v2 (curve class of the dose response curve)” value in [9] was -1.3. The “Efficacy (difference between neutral response and maximum compound response)” value in data set [9] is listed as -66.223. Also, the “Max Resp (difference between neutral response and response at highest compound concentration)” value in [9] is listed as -100.305. Further, in [18], the “-Log(IC50) M, Transcription factor AP-1” value was “Transcription factor AP-1 -Log(IC50) M~4.74~-Log(IC50) M~0.8101~Target”. The compound further had a CC50 at 48 h in [14] of over 50 µM.

Regarding `CO[C@@H]1[C@H](N(C)C(=O)c2ccccc2)C[C@H]2O[C@]1(C)n1c3ccccc3c3c4c(c5c6ccccc6n2c5c31)C(=O)NC4` [midostaurin], in [13], the “Retention of barrier function (TEER)” value is listed as “about 40%”. For the same compound, the “Effect on barrier function” value in data set [19] is “exacerbated the barrier function loss”.

As for `O=C(Nc1ccc([N+](=O)[O-])cc1Cl)c1cc(Cl)ccc1O` [niclosamide], the “Effect on barrier function” value in [13] and in data set [19] was “did not recover the barrier function” each time. Also, the “Identified as active in CPE assay validation set” value in data set [6] is reported as “identified”.

The record behind these values is paper PMC8765781, “A platform of assays for the discovery of anti-Zika small-molecules with activity in a 3D-bioprinted outer-blood-retina model” (PLoS ONE, 2022).
